Patent US8053415B2, “Compounds having RD targeting motifs” (Washington University in St. Louis, priority 2005, dated 2011)
Where a SMILES comes first, the peptide text is derived from it.

Assays:
[1] = molecular target: integrin αvβ3 protein (purified ABI) (Homo sapiens, UniProt P05106+P06756); test: Receptor binding assay with 125I-echistatin (Example 3); conditions: Table 4, 125I-echistatin tracer
Experimental: A 96-well filtration plate was blocked with 0.1% polyethylenimine blocking solution by incubation overnight at 4° C. ^125I-Echistatin (50 nmol/L) was added to the binding buffer (50 mM Tris-HCl, pH 7.4, 100 mM NaCl, 2 mM CaCl2, 1 mM MgCl2, 1 mM MnCl2, 0.1% BSA) with integrin αvβ3 protein (50 ng/well in 96-well filtration plate) and ligands. The concentration range of ligand was between 0.01 and 100 μM. The mixture was incubated for 2 h by shaking at room temperature. Each well was washed three times with 0.25 mL of ice-cold binding buffer and dried. The filters were removed using a punch apparatus and counted in a gamma counter.

A549 tumor = test: In vivo fluorescence optical imaging and ex vivo organ distribution in A549 tumor-bearing nude mice; conditions: for uptake / retention in A549 tumor: 0.3 μmol per kg via lateral tail vein, fluorescence imaging
Experimental: All in vivo studies were performed in compliance with the Washington University in St Louis Animal Study Committee's requirements for the care and use of laboratory animals in research. Nude mice (18-22 g) were anesthetized with xylazine/ketamine cocktail via intraperitoneal injection and placed in a supine position. The mice were injected subcutaneously with A549 cells (1×10^6) in the lower back of the mice. Tumor masses were palpable at 5-7 days post implant, which reached 5 mm in 10-15 days. Prior to injection of the probe, the mice were anesthetized as described above. A 29-gauge needle was used to inject the probes into the mouse via the lateral tail vein. The molecular probe (100 μL) was injected via the lateral tail vein at 0.3 μmol per kg of body weight. […] [SEQ ID NO:1] were constituted in a vial, and doses of 0.3 μmol per kg of body weight were injected into the A549 tumor-bearing mice.
A non-invasive in vivo continuous wave fluorescence imaging apparatus was used to visualize the distribution and preferential tissue uptake of the cypate-peptide molecular beacons in the nude mice (Achilefu (2004) Technol. Cancer Res. Treat. 3:393-409, incorporated herein by reference). Light from two laser diodes of nominal wavelength 780 nm and nominal power of 50 mW was launched into a fiber optic bundle. Two laser diodes were used to produce as much uniform illumination of the whole animal or organ parts as possible. The nominal 50 mW of incident power was reduced to about 44 mW at the output of the fiber optic bundle. A de-focusing lens in position after the bundle expanded the beam such that nearly the whole animal was illuminated. A Photometrics CCD camera (16 bit, 1024×1024 pixel, back illuminated, thermoelectric Peltier cooled with forced air) was used to capture the emitted photons. An interference filter (830 nm) was mounted in front of the CCD camera input lens such that only emitted fluorescent light from the contrast agent was imaged. Real-time acquisition, display and data processing software (WinView/32) was used to obtain the optical image. The samples were dissolved in 20% aqueous DMSO and animals were injected with doses of 0.3 μmol/kg body weight via the lateral tail vein. Injected volumes were 100 μL for each mouse. Data analysis consisted of subtracting (pixel by pixel) the pre-injection image from the post injection images, and displaying the false color results. Integration of the relative fluorescence intensities of tumor vs. surrounding tissues indicated the extent of selective uptake of the contrast agent. At the completion of the study, the mice were euthanized and some organ parts were excised and rinsed with water. The tissues were placed under the CCD camera and the fluorescence emission from each organ was measured after excitation with the 780 nm laser sources. Tissue parts, instead of whole organs, were used to minimize problems associated with depth-dependent non-linear fluorescence emission. A statistical program in the WinView package was used to estimate the mean fluorescence intensity per organ part.
In vivo optical imaging studies using the cypate-peptide optical probes were performed and analyzed as described above in Example 1. […]

HEK cells = test: Cell uptake and internalization (Example 3); type: cell-based, human; conditions: within an hour of incubation
Experimental: (§1) The ABI-positive cells were incubated with cypate or cypate-peptide conjugates at 37° C. for different time points. A549 cells were grown as detailed above. The human glioblastoma cell line, U87, and the human embryonic kidney cell line, HEK, were purchased from ATTC. U87 and HEK cells were maintained in minimum essential medium (MEM) with 2 mM L-glutamine and Earle's BSS adjusted to contain 1.5 g/L sodium bicarbonate, 0.1 mM nonessential amino acids, and 1.0 mM sodium pyruvate, with 10% fetal calf serum, 100 units/mL penicillin, and 100 units/mL streptomycin. Cells were grown on Lab-Tek slides. The medium was replaced and cells were incubated for various times up to 4 h at 37° C. in the presence of 1 μM of the dye conjugated peptides. For fluorescence microscopy, cells were visualized with an Olympus BX61W1 microscope using 775/50 excitation, 845/55 emission. For subcellular localization studies, 25 nM mitotracker green or 50 nM lysotracker red from Molecular Probes (Eugene, Oreg.) was added during the last 15 min or 60 min of incubation, respectively. […] Relative fluorescence was determined for five different areas of each experimental condition using the Slidebook software, and the results were averaged. The average relative fluorescence for each condition was normalized to cells treated with Cyp-GRD peptide.

U87 cells = test: Cell uptake and internalization (Example 3); type: cell-based, human; conditions: within an hour of incubation
Experimental: as §1

VSMC wild-type cells = test: Internalization in wild-type vascular smooth muscle cells; type: cell-based, mice; conditions: 1 μM, 1 hr, 37° C.
Experimental: (§2) Having shown that cypate-GRD preferentially binds to β3 integrin in ABI-positive cells, it was hypothesized that it would not internalize in β3 knockout cells. Vascular smooth muscle cells (VSMCs) from the aortas of β3^−/−apoE^−/− and β3^+/+apoE^−/− mice were provided by Dr. Clay F. Semenkovich (Washington University Medical School in St. Louis, Mo.). VSMCs were maintained at 37° C. in humidified atmosphere containing 5% CO2 in Dulbecco's modified Eagle's medium (DMEM) containing 10% fetal bovine serum, 4 mmol/L L-glutamine, 1 mM sodium pyruvate, 100 U/ml penicillin, 0.25 μg/ml amphotericin, 100 μg/ml streptomycin. The internalization of cypate-GRD and cyclic cypate-RGD were compared in β3 knockout and wild-type VSMC cells, essentially as described above.

β3 knockout VSMC cells = test: Internalization in integrin β3 knock-out vascular smooth muscle cells; type: cell-based, mice; conditions: 1 μM, 1 hr, 37° C.
Experimental: as §2

A549 cells [2] = test: CyQuant cytotoxicity and proliferation assay; type: cell-based, human; conditions: 48 hours
Experimental: Cells were seeded at 2.5×10^4 cells/well and grown in 96 well plates in the presence of 0−1.5×10^−5 M cypate conjugated peptides for 24 or 48 hours. Cell proliferation was measured using the CyQuant proliferation assay from Molecular Probes (Eugene, Oreg.) per the manufacturer's protocol. Briefly, after incubation the microplate was inverted to remove the media and frozen at −70° C. overnight. The microplate was thawed at room temperature and 200 μL of the CyQuant GR dye/cell-lysis buffer was added to each well. […]
Because the Cyquant assay is based on the adherence of a dye to nucleic acids, the assay is a measure of both proliferative and cytotoxic effects.

A549 cells [3] = test: Cellular internalization and blocking studies by fluorescence microscopy (Example 1); conditions: 37° C.; for translocation into the nucleus: A549 cells
Experimental: Cells were grown on LabTek microscope slides, as described above. The medium was removed and cells were incubated at 4° C. or 37° C. in PBS containing 1 μM of one of the peptide conjugates for 30 min. […] The cells were further incubated at 37° C. for 4 h and visualized with a Zeiss LSM510 system using a 633 laser and an LP650 filter.
For antibody blocking studies, cells were preincubated for 30 min at room temperature with 10 μg/ml function-specific monoclonal antibodies anti-αv or anti-β3 integrin subunits (Molecular Probes; Eugene Oreg.) before addition of 1 μM of a cypate-peptide conjugate. For nuclear staining, 0.1 μM TOPO-1 (Molecular Probes) was mixed with mounting medium and applied to the cells. All cells were visualized on an Olympus FV1000 microscope equipped with the appropriate bandwidth filters for cypate conjugates (or cypate-3 conjugates) and TROPO-1.

Sequence of integrin αvβ3 protein (purified ABI) (P06756 31-889 limits assumed): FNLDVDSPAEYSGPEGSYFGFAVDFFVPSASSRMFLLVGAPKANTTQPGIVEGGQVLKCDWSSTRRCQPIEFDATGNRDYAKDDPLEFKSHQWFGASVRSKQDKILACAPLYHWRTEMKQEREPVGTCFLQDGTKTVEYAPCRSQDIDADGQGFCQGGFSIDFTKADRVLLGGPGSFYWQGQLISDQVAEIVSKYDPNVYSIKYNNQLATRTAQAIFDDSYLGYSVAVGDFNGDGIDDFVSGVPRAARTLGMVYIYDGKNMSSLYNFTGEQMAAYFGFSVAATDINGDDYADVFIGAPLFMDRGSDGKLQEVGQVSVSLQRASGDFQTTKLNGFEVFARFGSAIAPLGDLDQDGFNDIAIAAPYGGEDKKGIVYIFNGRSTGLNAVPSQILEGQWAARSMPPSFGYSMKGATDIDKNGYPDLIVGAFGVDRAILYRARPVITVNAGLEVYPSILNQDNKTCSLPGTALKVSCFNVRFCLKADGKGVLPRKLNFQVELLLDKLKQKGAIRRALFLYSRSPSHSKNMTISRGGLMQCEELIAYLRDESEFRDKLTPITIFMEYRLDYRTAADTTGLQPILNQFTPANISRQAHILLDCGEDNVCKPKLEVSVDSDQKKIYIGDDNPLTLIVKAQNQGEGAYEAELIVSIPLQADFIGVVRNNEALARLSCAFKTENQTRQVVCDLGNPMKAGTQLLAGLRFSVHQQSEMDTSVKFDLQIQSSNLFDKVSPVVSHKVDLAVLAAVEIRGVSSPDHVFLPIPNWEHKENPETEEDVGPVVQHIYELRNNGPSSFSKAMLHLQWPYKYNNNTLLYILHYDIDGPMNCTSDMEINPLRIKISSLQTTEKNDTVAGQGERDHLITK
Sequence of integrin αvβ3 protein (purified ABI) (P06756 891-1048 partner limits assumed): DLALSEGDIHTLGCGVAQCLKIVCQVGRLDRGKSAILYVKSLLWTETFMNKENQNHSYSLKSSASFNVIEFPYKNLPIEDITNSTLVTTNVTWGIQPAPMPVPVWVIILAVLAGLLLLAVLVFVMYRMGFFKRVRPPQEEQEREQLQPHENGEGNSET
Sequence of integrin αvβ3 protein (purified ABI) (P05106 27-788): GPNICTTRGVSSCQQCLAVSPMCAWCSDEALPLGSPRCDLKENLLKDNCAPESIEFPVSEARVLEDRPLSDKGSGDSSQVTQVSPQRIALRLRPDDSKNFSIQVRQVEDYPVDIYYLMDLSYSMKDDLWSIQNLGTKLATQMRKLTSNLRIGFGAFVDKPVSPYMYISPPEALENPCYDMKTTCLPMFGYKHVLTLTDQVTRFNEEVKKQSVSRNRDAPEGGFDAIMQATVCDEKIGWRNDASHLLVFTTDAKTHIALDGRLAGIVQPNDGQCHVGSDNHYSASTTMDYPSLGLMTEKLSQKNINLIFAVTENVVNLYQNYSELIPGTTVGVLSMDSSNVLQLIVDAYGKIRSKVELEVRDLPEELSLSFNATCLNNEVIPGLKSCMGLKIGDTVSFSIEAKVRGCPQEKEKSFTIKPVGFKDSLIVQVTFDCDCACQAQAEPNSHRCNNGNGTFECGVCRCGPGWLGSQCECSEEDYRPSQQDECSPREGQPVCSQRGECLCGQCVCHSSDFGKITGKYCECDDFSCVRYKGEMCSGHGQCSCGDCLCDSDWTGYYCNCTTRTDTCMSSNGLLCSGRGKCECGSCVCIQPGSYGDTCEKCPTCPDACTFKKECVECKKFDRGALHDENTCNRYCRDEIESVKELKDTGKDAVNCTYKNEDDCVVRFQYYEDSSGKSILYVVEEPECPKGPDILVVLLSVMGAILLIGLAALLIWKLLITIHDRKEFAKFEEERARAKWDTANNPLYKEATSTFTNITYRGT

Compound: CC1(C)C(/C=C/C=C/C=C/C=C2/N(CCC(=O)NCC(=O)N[C@@H](CCCNC(=N)N)C(=O)N[C@@H](CC(=O)O)C(=O)N[C@@H](CO)C(=O)N3CCC[C@H]3C(=O)N[C@@H](CCCCN)C(=O)O)c3ccc4ccccc4c3C2(C)C)=[N+](CCC(=O)O)c2ccc3ccccc3c21 [Cyp-GRD, Cypate-GRDSPK] (HELM PEPTIDE1{[CC1(C)C(/C=C/C=C/C=C/C=C2/N(CCC(=O)[*:2])c3ccc4ccccc4c3C2(C)C)=[N+](CCC(=O)O)c2ccc3ccccc3c21].G.R.D.S.P.K}$$$$V2.0)
- IC50 [1]: > 100 µM
- clearance from blood (A549 tumor; 0.3 μmol per kg i.v.): slow clearance
- time post injection after which selective tumor uptake became obvious (A549 tumor; 0.3 μmol per kg i.v.): > 8 h
- time the whole animal fluoresced after injection before clearance began (A549 tumor; 0.3 μmol per kg i.v.): up to 2 h
- uptake / retention in A549 tumor (A549 tumor): preferential uptake of the probes in the tumor
- uptake / retention in A549 tumor (A549 tumor; listed as cypate-GRD): preferentially localized
- accumulation / retention in nontarget tissues (A549 tumor; 24 h post injection): much lower
- tumor uptake compared among the cypate-peptide conjugates (A549 tumor; 24 h post injection): higher uptake in the tumor tissue
- internalization in HEK cells (HEK cells): internalization
- internalization in U87 cells (U87 cells): internalization
- internalization in VSMC wild-type cells (VSMC wild-type cells): internalized
- internalization in β3 knockout cells (β3 knockout VSMC cells): not observed
- cytotoxicity (CyQuant), longer treatment (A549 cells [2]): not
- internalization in A549 cells (A549 cells [3]; 1 μM): internalized
- translocation into the nucleus (A549 cells [3]): did not translocate to the nucleus
- translocation into the nucleus (A549 cells [3]; listed as cypate-GRD): not localized in the nucleus
